Test results reported in article PMC4117768, “Conjugation with polyamines enhances the antibacterial and anticancer activity of chloramphenicol” (Nucleic Acids Research, 2014).
Several values for one entry are separate records, joined by “and”; a condition that tells them apart may be missing. Equal entries are not always repeated. Where two headings read alike, the source gives them in different places.

How the values were obtained:
[1] = tested on: complex C (poly(U)-programmed ribosomes from E. coli bearing Ac[3H]Phe-tRNA at the P-site), peptidyl transferase; parameters: method as in PMID 12930958; settings: cited from earlier work
wild-type S. aureus = test: Growth inhibition of bacterial cell cultures; format: cell-based; settings: Staphylococcus aureus, read-out: IC50 (inhibit the growth by half)
Method: (§1) S. aureus or E. coli cells (400 μl of a 0.700 OD560 preculture) containing wild-type or mutant ribosomes were added in 3.6 ml of LB (Luria Broth) medium and grown at 37°C in the presence or absence of CAM or PA–CAM conjugates until the optical density of the control culture (grown in the absence of drug) reached the value 0.700 at 560 nm. From the growth curves, the IC50 value for each strain was estimated as the concentration of the drug that is required to inhibit the growth by half.

[2] = tested on: E. coli (A2058G) TA531 cells with pKK35 plasmid, mutated 23S rRNA; test: Growth inhibition of bacterial cell cultures, CAM-resistant mutant; format: cell-based; settings: for IC50: Escherichia coli, read-out: IC50 (inhibit the growth by half)
Excerpt: (§2) CAM free base [D-(-)threo-1-(p-nitrophenyl)-2-amino-1,3-propanediol], puromycin dihydrochloride, tRNA^Phe from E. coli, dimethyl sulfate (DMS), DMS stop solution and tRNA^Phe from E. coli were purchased from Sigma-Aldrich. Kethoxal and 1-cyclohexyl-3-(2-morpholinoethyl)-carbodiimide metho-p-toluene sulfate (CMCT) were from MP Biomedicals and Fluka Biochemicals, respectively. AMV reverse transcriptase was supplied by Roche, dNTPs by HT Biotechnology, and ddNTPs by Jena Bioscience. L-[2,3,4,5,6 -^3H]Phenylalanine was from Amersham Biosciences and [α-^32P]ATP from Izotop. Cellulose nitrate filters (type HA; 0.45 μm pore size) were from Millipore Corp. Details in experimental procedures of synthesis and physical and spectra data for the synthesized compounds will be published elsewhere. […] The mesothelioma cell line ZL34 and its immortalized counterpart cell line Met5A, were kindly provided by Prof. G. Stathopoulos (University of Patras).
as §1

[3] = tested on: E. coli (A2503C) TA531 cells with pKK35 plasmid, mutated 23S rRNA; test: as above; format: cell-based; settings: for IC50: Escherichia coli, read-out: IC50 (inhibit the growth by half)
Excerpt: as §2, §1

[4] = tested on: complex C (poly(U)-programmed ribosomes from E. coli bearing Ac[3H]Phe-tRNA at the P-site), peptidyl transferase; test: Inhibition of AcPhe-puromycin synthesis (puromycin reaction, peptide bond formation); format: biochemical; settings: for Ki: 25°C, buffer A
Method: Isolation of 70S ribosomes from E. coli K12 cells and preparation of Ac[^3H]Phe-tRNA^Phe charged to 80% were performed, as described previously ([23]). The post-translocation complex of poly(U)-programmed ribosomes (complex C), bearing tRNA^Phe at the E-site and Ac[^3H]Phe-tRNA at the P-site was prepared in buffer A (100 mM Tris-HCl pH 7.2, 6 mM (CH3COO)2Mg, 100 mM NH4Cl and 6 mM 2-mercaptoethanol). The percentage of active ribosomes in AcPhe-tRNA binding was 72%. This ribosomal population was more than 90% reactive toward puromycin.
The reaction between complex C and excess puromycin (S), a pseudo-substrate which binds to the ribosomal A-site, was performed at 25°C in buffer A and analyzed as described in detail elsewhere ([11]). Briefly, since the reaction followed first-order kinetics, the first-order rate constant kobs at each concentration of puromycin was determined by fitting the corrected x-values into Equation ([1]), (1) where x is the product Ac[^3H]Phe-puromycin expressed as the percentage of complex C radioactivity added in the reaction mixture and t the time of the reaction. kobs is related to the puromycin concentration, [S], by the relationship, (2) where kcat is the catalytic rate constant of PTase and KS the affinity constant of puromycin for complex C.
In the presence of CAM–polyamine conjugates, biphasic logarithmic time plots were obtained. The slope of the straight line through the origin was taken as the value of the apparent rate constant, kobs(early), at the early phase of the reaction, while the slope of the second straight line was taken as the value of the rate constant, kobs(late), at the late phase of the reaction.

[5] = tested on: U937 (histiocytic lymphoma) cells; test: Toxicity assay in leukemic cell line (cell counting); format: cell-based, human; settings: increasing concentrations
Method: Human leukemic cell lines, HS-Sultan (Burkitt's lymphoma) (European Collection of Cell Cultures, Salisbury, UK), Jurkat (T-cell acute lymphoblastic leukemia) and U937 (histiocytic lymphoma) (American Type Culture Collection, Manassas, USA), were adjusted to 1 × 10^9 cells/l in RPMI-1640 medium containing 1% Penicillin/Streptomycin and 10% fetal bovine serum and grown in triplicate in the presence or absence of CAM or PA–CAM conjugates for 4 days at 37°C, under a humidified 5% CO2 atmosphere. The medium was changed after 2 days of exposure; CAM or PA-CAM addition was repeated after medium change to keep the appropriate drug concentration. Aliquots were collected daily and counted in a CELL-DYN 3700 Hematology Analyzer. For cell necrosis and apoptosis assays, samples (10^6 cells) were collected daily and determined using the Annexin V-PE Apoptosis Detection Kit I (BD Pharmingen) for flow cytometry ([29]), as described by the manufacturer. Flow cytometry data were analyzed using the FlowJo flow cytometry analysis software. Necrotic and apoptotic cells were expressed as a percentage of total cells.
Figure S2. Toxicity assays in leukemic cell lines. […] Aliquots were collected daily and counted in a CELL-DYN 3700 Hematology Analyzer.

| SMILES | koff [1] | Ki ([1]; early phase) | Ki ([1]; late phase) | IC50 (wild-type S. aureus; WT-S. aureus, LB medium, 37°C) | IC50 [2] | IC50 [3] | IC50 (wild-type S. aureus) | Ki ([4]; early phase of the reaction (encounter complex CI)) | Ki ([4]; late phase of the reaction (complex C*I)) | potency relative to CAM, based on Kik7/(k6 + k7) ([4]; overall two-step inhibition of the puromycin reaction) | IC50 superiority over CAM ([2]; E. coli A2058G mutant) | IC50 superiority over CAM ([3]; E. coli A2503C mutant) | sensitivity of cells (cell counting) [5] |
| --- | --- | --- | --- | --- | --- | --- | --- | --- | --- | --- | --- | --- | --- |
| O=C(N[C@H](CO)[C@H](O)c1ccc([N+](=O)[O-])cc1)C(Cl)Cl [CAM, Chloramphenicol] | 0.0165 ± 0.00067 s⁻¹ | 3.1 ± 0.3 µM | 0.88 ± 0.07 µM | 3.1 ± 0.3 µM | 15.5 ± 1.3 µM | 24.7 ± 2.3 µM | – | – | – | – | – | – | – |
| NCCCN(CCCCN(Cc1ccccc1)Cc1ccccc1)C(=O)CCC(=O)N[C@H](CO)[C@H](O)c1ccc([N+](=O)[O-])cc1 [Compound 4] | – | – | – | – | 9.4 ± 1 µM | 9.4 ± 0.9 µM | 4.7 ± 0.5 µM | 0.975 µM and 0.98 µM | 0.28 ± 0.03 µM | 3 fold | ~2 fold | ~2 fold | insensitive |
